# Results from US20230303564A1, “PYRIMIDINE RING COMPOUND” (MEDSHINE DISCOVERY INC., priority 2020, published 2023).
# pIC50: −log10 of the molar value.
# Assays:
# CDK1/CyclinB1 = CDK1/CyclinB1 (Homo sapiens (Human), UniProt P06493); test: CDK1/CyclinB1 enzyme activity test (ADP-Glo); assay type: biochemical; details: 25 μM ATP, 25° C. 120 minutes, read-out: CDK1/Cyclin B IC50
# Description: CDK1/CyclinB1 Enzyme Reaction System
# Enzymes, substrates, ATP, and inhibitors were diluted by kinase buffer in the kit. The compounds to be tested were diluted 5-fold with a multi-channel pipette to the eighth concentration, that is, from 50 μM to 0.65 nM, the concentration of DMSO was 5%, and a double-hole experiment was set up. 1 μL of each concentration gradient of inhibitors, 2 μL of CDK1/CyclinB1 enzyme (12.5 ng), 2 μL mixture of substrate and ATP (25 μM adenosine triphosphate, 0.2 μg/μL substrate) were added to the microplates, and the final concentration gradient of the compound was 10 μM to 0.13 nM. The reaction system was reacted at 25° C. for 120 minutes. After the reaction, 5 μL of ADP-Glo reagent was added to each well, the reaction was carried out at 25° C. for 40 minutes, after the reaction was completed, 10 μL of kinase detection reagent was added to each well, the reaction was carried out at 25° C. for 30 minutes, the multiple label analyzer was used to read the chemiluminescence with an integration time of 0.5 seconds.
# The equation (Sample−Min)/(Max−Min)*100% was used to convert the raw data into inhibition rate, and the value of IC50 can be obtained by curve fitting with four parameters (obtained by log (inhibitor) vs. response-Variable slope mode in GraphPad Prism). The enzymatic inhibitory activity of the compounds of the present disclosure on CDK1/CyclinB1, CDK2/CyclinA2, CDK2/CyclinE1, CDK4/CyclinD1, CDK6/CyclinD1, CDK7/CyclinH/MAT1, CDK9/CyclinT1 was provided in Table 1.
# OVCAR-3 cells = test: Cell activity test, anti-proliferation (CellTiter Glo), OVCAR-3; assay type: cell-based, human; details: OVCAR-3, 7 days of culture
# Description: 2) Day 1: Laying Cell Plates
# (6) 0.7 mL of cell suspension was pipetted into the counting cup, the cells were counted on ViCell XR, and the cell suspension was diluted separately with culture medium to the required cell concentration for laying cell plates: 1000/30 ul.
# (7) Microplates (2 plates) were required, 100 uL of phosphate buffered saline was added to the peripheral wells of the 384-well plate, 30 uL of cell suspension was added to the other wells, and the cell plate was placed into incubator for culture.
# (1) Compound preparation: the stock solution of the compound to be tested was 10 mM.
# (2) The compound to be tested was diluted 3 times with DMSO for 10 gradients.
# (2) The compound to be tested was diluted with culture medium, and the highest final concentration was 10 μM.
# (4) 10 μL of the compound was pipetted into the 384-well plate, and then the cell plate was placed back into the incubator for culture.
# 4) Adding CTG and Reading the Plate
# (1) After 7 days of culture, 50 ul CellTiter Glo was added to the cell plate, shaken for 10 minutes in the dark, and left at room temperature for 5 minutes.
# (2) The plate was read on Envision with the program: US LUM 384 (CPS). The experiment was originally stored in the personal disk:
# 1. The mean and standard deviation of 0% inhibition (DMSO row, ZPE) and 100% inhibition (PBS row, HPE) were calculated;
# 2. Inhibition rate (%)=(1−(sample value-average value of 100% inhibition)/(average value of 0% inhibition-average value of 100% inhibition))*100;
# 3. The curve was fitted by GraphPad 8.0 software;
# [1] = Pharmacokinetic evaluation in CD-1 (ICR) mice, oral; assay type: in vivo, mouse; details: male CD-1 (ICR) mice, oral 5 mg/kg, plasma
# Description: Experimental Scheme of Compounds 18, 19 and 20
# The healthy adult male CD-1 (ICR) mice used in this study were purchased from Pinghu Weitong Lihua Experimental Animal Technology Co., Ltd.
# 0.300 mL of the stock solution was measured and vortexed for 2 minutes to obtain a homogeneous suspension at a concentration of 1 mg/mL, and the administration vehicle was 1% HPMC in water.
# Two male CD-1 (ICR) mice were given 5 mg/kg of the compound to be tested by intragastric administration.
# The blood of two animals was collected at each time point by serial blood collection. 30 μL of whole blood was collected respectively at 0.25, 0.5, 1, 2, 4, 8, and 24 hours after administration. The whole blood was placed in an anticoagulant tube, centrifuged at 3200 g for 10 minutes at 4° C., plasma was prepared and stored at −60° C. or lower. The drug concentration in plasma was determined by LC/MS-MS.
# CDK1/CyclinB1, sequence (P06493 whole entry): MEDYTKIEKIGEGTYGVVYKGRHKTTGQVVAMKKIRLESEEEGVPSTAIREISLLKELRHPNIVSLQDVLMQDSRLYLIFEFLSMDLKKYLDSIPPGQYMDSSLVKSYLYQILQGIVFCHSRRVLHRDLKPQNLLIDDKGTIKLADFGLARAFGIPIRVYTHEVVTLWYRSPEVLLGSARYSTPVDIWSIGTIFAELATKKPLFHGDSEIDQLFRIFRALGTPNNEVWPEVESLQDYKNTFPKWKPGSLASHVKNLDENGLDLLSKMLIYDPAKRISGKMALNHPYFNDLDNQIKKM
# CDK1/CyclinB1, sequence (P14635 whole entry partner): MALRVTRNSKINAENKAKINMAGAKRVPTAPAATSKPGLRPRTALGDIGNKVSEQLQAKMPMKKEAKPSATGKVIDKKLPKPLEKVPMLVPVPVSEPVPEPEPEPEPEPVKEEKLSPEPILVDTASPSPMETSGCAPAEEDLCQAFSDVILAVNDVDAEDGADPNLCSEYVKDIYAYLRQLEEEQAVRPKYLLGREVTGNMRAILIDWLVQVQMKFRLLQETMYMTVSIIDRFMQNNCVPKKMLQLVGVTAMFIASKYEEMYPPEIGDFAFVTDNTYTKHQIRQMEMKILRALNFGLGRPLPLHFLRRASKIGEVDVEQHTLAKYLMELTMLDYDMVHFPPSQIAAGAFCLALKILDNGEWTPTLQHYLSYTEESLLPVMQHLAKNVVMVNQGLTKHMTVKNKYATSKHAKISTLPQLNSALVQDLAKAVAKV
pIC50 (CDK1/CyclinB1),pIC50 (OVCAR-3 cells),Oral exposure AUC0-t [1],Structure (SMILES)
8.05,7.36,,"CS(=O)(=O)N1CCC(Nc2ncc3cc(C(F)F)nc(N[C@@H]4CCCC4(F)F)c3n2)CC1 (single isomer, unassigned) [Compound 22]"
,7.92,2.746 µM·h,Cn1cc(Cl)c(Nc2nc(C(F)F)cc3cnc(NC4CCN(S(C)(=O)=O)CC4)nc23)n1 [Compound 20]
,7.54,3.143 µM·h,Cc1cn(C)nc1Nc1nc(C(F)F)cc2cnc(NC3CCN(S(C)(=O)=O)CC3)nc12 [Compound 19]
